As usually defined, the IC50 is the concentration needed to halve the response being measured.

Counter-ions that a name gives are not always drawn. Like-named read-outs stand apart in the source and are kept apart here.

For the assay, the system named is XBP1s-luc 293 LUC. In words: cellular PD assay, XBP1s-LUC reporter (Example 903). In kind it is cell-based. Particulars: read-out: XBP1s-luc 293 LUC (IC50). A digest of the protocol: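 Cellular IRE1α pathway activity was quantified from the luciferase signal of an XBP1-Luc reporter, where the luciferase fusion is in frame and expressed only from the spliced XBP1 transcript.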

In the case of `Cc1ccc2c(NS(=O)(=O)N3CCCC3)cccc2c1Oc1ncccc1-c1ccnc(N[C@H]2CCCNC2)n1` [Example 108, (S)—N-(6-Methyl-5-((3-(2-(piperidin-3-ylamino)pyrimidin-4-yl)pyridin-2-yl)oxy)naphthalen-1-yl)pyrrolidine-1-sulfonamide hydrochloride], the IC50 (Table 1) was 298 nM.

Turning to `COCCCS(=O)(=O)Nc1cccc2c(Oc3ncccc3-c3ccnc(N[C@H]4CCCNC4)n3)c(C)ccc12` [Example 132, (S)-3-Methoxy-N-(6-methyl-5-((3-(2-(piperidin-3-ylamino)pyrimidin-4-yl)pyridin-2-yl)oxy)naphthalen-1-yl)propane-1-sulfonamide hydrochloride], for the setting “Table 1”, the 50% inhibitory concentration (IC50) was 365 nM. Still for that read-out and setting: the same measure for `Cc1ccc2c(NC(=O)[C@H]3CC34CC4)c(F)ccc2c1Oc1ncccc1-c1ccnc(N[C@H]2CCCNC2)n1` (single isomer, unassigned) [Example 379]: 279 nM; for `Cc1ccc2c(N3C(=O)CCC3C)cccc2c1Oc1ncccc1-c1ccnc(N[C@H]2CCCNC2)n1` (mixture of isomers) [Example 237, 5-Methyl-1-(6-methyl-5-((3-(2-((S)-piperidin-3-ylamino)pyrimidin-4-yl)pyridin-2-yl)oxy)naphthalen-1-yl)pyrrolidin-2-one]: 472 nM; for `Cc1ccc2c(NS(=O)(=O)Cc3ccc(Cl)cc3)c(F)ccc2c1Oc1ncccc1-c1ccnc(N[C@H]2CCCNC2)n1` [Example 209, (S)-1-(4-Chlorophenyl)-N-(2-fluoro-6-methyl-5-((3-(2-(piperidin-3-ylamino)pyrimidin-4-yl)pyridin-2-yl)oxy)naphthalen-1-yl)methanesulfonamide]: 8.04 nM. `CCCS(=O)(=O)Nc1cccc2c(Oc3ncccc3-c3ccnc(N[C@@H]4CNCC[C@H]4F)n3)c(C)ccc12` (single isomer, unassigned) [Example 206]: under “Table 1”, the 50% inhibitory concentration (IC50) was 487 nM. The same measure, in the same setting: for `CCCS(=O)(=O)Nc1cccc2c(Oc3ncccc3-c3ccnc(N[C@@H]4CNCC[C@H]4C)n3)c(C)ccc12` (single isomer, unassigned) [Example 169] the value was 121 nM; for `Cc1ccc2c(NC(=O)[C@H]3CC3(F)F)cccc2c1Oc1ncccc1-c1ccnc(N[C@H]2CCCNC2)n1` (single isomer, unassigned) [Example 179], 76 nM.

On to `Cc1cnn(-c2cccc3c(Oc4ncccc4-c4ccnc(N[C@H]5CCCNC5)n4)c(C)ccc23)c1` [Example 207, (S)-4-(2-((2-Methyl-5-(4-methyl-1H-pyrazol-1-yl)naphthalen-1-yl)oxy)pyridin-3-yl)-N-(piperidin-3-yl)pyrimidin-2-amine], for which, under “Table 1”, the IC50 was 251 nM.

For `Cc1ccc2c(NS(=O)(=O)CC(C)C)cccc2c1Oc1ncccc1-c1ccnc(N[C@@H]2CNC[C@H](C)C2)n1` [Example 304, 2-Methyl-N-(6-methyl-5-((3-(2-(((3S,5R)-5-methylpiperidin-3-yl)amino)pyrimidin-4-yl)pyridin-2-yl)oxy)naphthalen-1-yl)propane-1-sulfonamide], the concentration for half-maximal inhibition (IC50) (Table 1) turned out to be 105 nM. As to `Cc1ccc2c(NC[C@@H](C)C#N)cccc2c1Oc1ncccc1-c1ccnc(N[C@H]2CCCNC2)n1` (single isomer, unassigned) [Example 414, hydrochloride], the half-inhibitory concentration (IC50) (Table 2) was 59 nM.

As to `Cc1ccc2c(NS(=O)(=O)Cc3ccccc3)c(F)ccc2c1Oc1ncccc1-c1ccnc(N[C@H]2CCCNC2)n1` [Example 283, (S)—N-(2-Fluoro-6-methyl-5-((3-(2-(piperidin-3-ylamino)pyrimidin-4-yl)pyridin-2-yl)oxy)naphthalen-1-yl)-1-phenylmethanesulfonamide], the IC50 (Table 1) is 2.96 nM.

On to `Cc1ccc2c(N3CC[C@@H](CF)C3=O)cccc2c1Oc1ncccc1-c1ccnc(N[C@H]2CCCNC2)n1` [Example 315, (R)-3-(Fluoromethyl)-1-(6-methyl-5-((3-(2-(((S)-piperidin-3-yl)amino)pyrimidin-4-yl)pyridin-2-yl)oxy)naphthalen-1-yl)pyrrolidin-2-one], for which, where the note is “Table 1”, the 50% inhibitory concentration (IC50) is 471 nM.

In the case of `Cc1ccc2c(NCc3ccn(C)n3)cccc2c1Oc1ncccc1-c1ccnc(N[C@@H]2CNC[C@H](C)C2)n1` [Example 330, 4-(2-((2-Methyl-5-(((1-methyl-1H-pyrazol-3-yl)methyl)amino)naphthalen-1-yl)oxy)pyridin-3-yl)-N-((3S,5R)-5-methylpiperidin-3-yl)pyrimidin-2-amine], the IC50 (Table 1) was found to be 197 nM. Still for that read-out and setting: the same measure for `Cc1ccc2c(NC(=O)CCC(F)(F)F)cccc2c1Oc1ncccc1-c1ccnc(N[C@H]2CCCNC2)n1` [Example 178, (S)-4,4,4-Trifluoro-N-(6-methyl-5-((3-(2-(piperidin-3-ylamino)pyrimidin-4-yl)pyridin-2-yl)oxy)naphthalen-1-yl)butanamide]: 125 nM.

As to `Cc1ccc2c(NS(=O)(=O)CC(F)(F)F)c(F)ccc2c1Oc1ncccc1-c1ccnc(N[C@@H]2CNC[C@@H](F)C2)n1` (single isomer, unassigned) [Example 444, hydrochloride], the IC50 (Table 2) is 19 nM. As to `Cc1ccc2c(NS(=O)(=O)c3cccc4c3ccn4C)c(F)ccc2c1Oc1ncccc1-c1ccnc(N[C@H]2CCCNC2)n1` [Example 458, N-[2-Fluoro-6-methyl-5-[[3-[2-[[(3S)-3-piperidyl]amino]pyrimidin-4-yl]-2-pyridyl]oxy]-1-naphthyl]-1-methyl-indole-4-sulfonamide], for the setting “Table 2”, the half-inhibitory concentration (IC50) turned out to be 19 nM. Consider `Cc1ccc2c(NC(=O)C3CCC3)cccc2c1Oc1ncccc1-c1ccnc(N[C@H]2CCCNC2)n1` [Example 131, (S)—N-(6-Methyl-5-((3-(2-(piperidin-3-ylamino)pyrimidin-4-yl)pyridin-2-yl)oxy)naphthalen-1-yl)cyclobutanecarboxamide], for which the IC50 (Table 1) was determined as 153 nM. The same measure, in the same setting: the same measure for `Cc1ccc2c(N3CCCC3=O)cccc2c1Oc1ncccc1-c1ccnc(N[C@H]2CCCNC2)n1` [Example 216, (S)-1-(6-Methyl-5-((3-(2-(piperidin-3-ylamino)pyrimidin-4-yl)pyridin-2-yl)oxy)naphthalen-1-yl)pyrrolidin-2-one]: 260 nM.

In the case of `Cc1ccc2c(NS(=O)(=O)Cc3ccccc3)cccc2c1Oc1ncccc1-c1ccnc(N[C@@H]2CNC[C@H](C)C2)n1` [Example 479, N-[6-Methyl-5-[[3-[2-[[(3S,5R)-5-methyl-3-piperidyl]amino]pyrimidin-4-yl]-2-pyridyl]oxy]-1-naphthyl]-1-phenyl-methanesulfonamide], where the note is “Table 2”, the IC50 is 12 nM. Same read-out and setting: the same measure for `Cc1ccc2c(NS(=O)(=O)Cc3cscn3)c(F)ccc2c1Oc1ncccc1-c1ccnc(N[C@H]2CCCNC2)n1` [Example 402, (S)—N-(2-Fluoro-6-methyl-5-((3-(2-(piperidin-3-ylamino)pyrimidin-4-yl)pyridin-2-yl)oxy)naphthalen-1-yl)-1-(thiazol-4-yl)methanesulfonamide hydrochloride]: 51 nM.

Turning to `Cc1ccc2c(NC[C@@H]3CC3(F)F)cccc2c1Oc1ncccc1-c1ccnc(N[C@H]2CCCNC2)n1` (single isomer, unassigned) [Example 343], under “Table 1”, the IC50 was 181 nM. On the same count and under the same terms, for `Cc1ccc2c(NC(=O)C3CC3)c(F)ccc2c1Oc1ncccc1-c1ccnc(N[C@@H]2CNC[C@H](C)C2)n1` [Example 310, N-(2-Fluoro-6-methyl-5-((3-(2-(((3S,5R)-5-methylpiperidin-3-yl)amino)pyrimidin-4-yl)pyridin-2-yl)oxy)naphthalen-1-yl)cyclopropanecarboxamide] the value was 135 nM; for `Cc1ccc2c(NC(=O)[C@H]3C[C@H]3F)cccc2c1Oc1ncccc1-c1ccnc(N[C@H]2CCCNC2)n1` [Example 222, (1R,2R)-2-Fluoro-N-[6-methyl-5-[[3-[2-[[(3S)-3-piperidyl]amino]pyrimidin-4-yl]-2-pyridyl]oxy]-1-naphthyl]cyclopropanecarboxamide], 93 nM; for `Cc1ccc2c(N3CCCC(C)C3=O)cccc2c1Oc1ncccc1-c1ccnc(N[C@H]2CCCNC2)n1` (mixture of isomers) [Example 354, 3-Methyl-1-(6-methyl-5-((3-(2-((S)-piperidin-3-ylamino)pyrimidin-4-yl)pyridin-2-yl)oxy)naphthalen-1-yl)piperidin-2-one], 318 nM. Turning to `CCOC(=O)Nc1cccc2c(Oc3ncccc3-c3ccnc(N[C@H]4CCCNC4)n3)c(C)ccc12` [Example 153, (S)-Ethyl (6-methyl-5-((3-(2-(piperidin-3-ylamino)pyrimidin-4-yl)pyridin-2-yl)oxy)naphthalen-1-yl)carbamate], the half-inhibitory concentration (IC50) (Table 1) was determined as 143 nM. On the same count and under the same terms, for `CCCS(=O)(=O)Nc1c(F)ccc2c(Oc3ncccc3-c3ccnc(N[C@@H]4CNCC[C@H]4C)n3)c(C)ccc12` (single isomer, unassigned) [Example 327] the value was 254 nM.

Turning to `Cc1ccc2c(NCC(F)CF)cccc2c1Oc1ncccc1-c1ccnc(N[C@H]2CCCNC2)n1` (mixture of isomers) [Example 460, 4-[2-[[5-(2,3-Difluoropropylamino)-2-methyl-1-naphthyl]oxy]-3-pyridyl]-N-[(3S)-3-piperidyl]pyrimidin-2-amine hydrochloride], for the setting “Table 2”, the IC50 amounted to 92 nM. With `CCCS(=O)(=O)Nc1cccc2c(Oc3ncc(Br)cc3-c3ccnc(N[C@H]4CCCNC4)n3)c(C)ccc12` [Example 336, (S)-N-(5-((5-Bromo-3-(2-(piperidin-3-ylamino)pyrimidin-4-yl)pyridin-2-yl)oxy)-6-methylnaphthalen-1-yl)propane-1-sulfonamide], the 50% inhibitory concentration (IC50) (Table 1) was determined as 540 nM. For the molecule `Cc1ccc2c(NS(=O)(=O)Cc3ccccc3)c(F)ccc2c1Oc1ncccc1-c1ccnc(N[C@@H]2CNC[C@H](C)C2)n1` [Example 378, N-(2-Fluoro-6-methyl-5-((3-(2-(((3S,5R)-5-methylpiperidin-3-yl)amino)pyrimidin-4-yl)pyridin-2-yl)oxy)naphthalen-1-yl)-1-phenylmethanesulfonamide], the IC50 (Table 1) was 1.41 nM. Turning to `Cc1nc(CS(=O)(=O)Nc2c(F)ccc3c(Oc4ncccc4-c4ccnc(N[C@H]5CCCNC5)n4)c(C)ccc23)cs1` [Example 411, (S)—N-(2-Fluoro-6-methyl-5-((3-(2-(piperidin-3-ylamino)pyrimidin-4-yl)pyridin-2-yl)oxy)naphthalen-1-yl)-1-(2-methylthiazol-4-yl)methanesulfonamide hydrochloride], the half-inhibitory concentration (IC50) (Table 2) was found to be 12 nM.
